Laboratory results as given in paper PMC7196836, “Molecular analysis of the ribosome recycling factor ABCE1 bound to the 30S post‐splitting complex” (The EMBO Journal, 2020).

Molecular target: T1, ABCE1 (Saccharolobus solfataricus, UniProt Q980K5, L353Y)
T1 construct: gene SSO0287; recombinant in E. coli (pSA4 plasmid), C-terminal His6 tag; FeS cluster domain kept
Assay: Malachite Green ATPase assay (phosphate release)
Format: biochemical
Settings: 2 mM ATP, 2.5 mM MgCl2, 150 mM NaCl, Hepes pH 7.5, 80 °C; no ribosomes

## Nc1ncnc2c1ncn2[C@@H]1O[C@H](COP(=O)(O)OP(=O)(O)OP(=O)(O)O)[C@@H](O)[C@H]1O [ATP]
  ATP turnover per ABCE1: ATPase activity of ABCE1^L353Y (Appendix Fig S3) were comparable to wild type
